Results published in patent US10532082B2, “SOCS1-derived peptide for use in chronic complications of diabetes” (Fundació Hospital Universitari Vall d'Hebron-Institut de …, priority 2014, dated 2020).
Where no end group is shown, it is not given here. [ ]: non-standard residue; d: D form. lysine‑palmitate = lysine-palmitate bound at the N-terminal end; pY = N[C@@H](Cc1ccc(OP(=O)(O)O)cc1)C(=O)O

Assays:
STAT1 [1] = test: STAT1 activation in cytokine-stimulated VSMC; assay type: cell-based, mouse; settings: IFNγ and IL-6 stimulation, immunofluorescence images
STAT3 [2] = test: STAT3 activation in cytokine-stimulated macrophages (Western blot); assay type: cell-based, murine; settings: pre-incubation 50-150 ug/mL (Mut 150 ug/mL), IFNγ and IL-6 stimulation
Experimental: RAW264.7 macrophages and vascular smooth muscle cells (VSMC) cultured in a medium with 10% fetal bovine serum were used. The cells were synchronized (24 hours without serum), pre-incubated for 90 minutes with different peptide concentrations (miS1 or the control thereof, 50-150 μg/mL) and stimulated with cytokines (IFNγ […]). STAT activation was analyzed by means of Western blot for phosphorylated STAT1/STAT3 isoforms. JAK/STAT pathway-dependent chemokine (CCL2) expression was determined by means of ELISA. Cell viability was analyzed by MTT colorimetric assay and macrophage migration was analyzed by chemotaxis assay.

STAT3 [3] = test: Renal phosphorylated STAT3 immunodetection in diabetic mice; assay type: in vivo; settings: STZ apoE mice, i.p. 8 weeks; kidney sections, vs vehicle
Experimental: (§1) Apolipoprotein E (apoE)-deficient male mice of 8 weeks of age were made diabetic through streptozotocin injection (125 mg/kg weight in 10 mM citrate, pH 4.5, two consecutive days). After 2 weeks, animals with glycemia greater than 350 mg/dL were randomly distributed in two groups (n=9 animals per group): treated animals (miS1 peptide: 65 μg/day, 200 μL, intraperitoneally, every 2 days for 8 weeks) and controls (vehicle). The weight and glycemia (colorimetric assay) were controlled throughout the study period.

[4] = test system: streptozotocin diabetic apoE-deficient mice; test: Kidney histology (lesions, fibrosis, inflammatory infiltrate) in diabetic mice; assay type: in vivo; settings: STZ apoE mice, i.p. 8 weeks
Experimental: as §1
At the end of the study, the anesthetized animals were perfused with saline and sacrificed, processing the tissues immediately. In renal cortex (paraffin sections, 5 μm) the glomerular and tubulointerstitial morphology was studied by means of PAS and Masson trichrome staining and the lesions were evaluated in a double-blind and semi-quantitative manner in a scale of 0-3. Renal fibrosis was determined by means of Picro-Sirius red staining and the infiltrating inflammatory cells (F4/80+ macrophages and CD3+ T-lymphocytes) by immunohistochemistry. In the aorta, the root/arch zone (serial cryosections of 8 μm from the valves to an extension of 1000 μm) was stained with Oil-red-O/hematoxylin and the area of the atherosclerotic lesion was quantified (Metamorph program). Plaque stability was assessed by collagen fiber staining with Picro-Sirius red and α-actin immunofluorescence. The inflammatory component was determined by means of immunohistochemistry for monocyte/macrophages (Moma2). The Image Pro-Plus program was used for quantifying positive stainings. The biochemical parameters in serum (glycated hemoglobin, cholesterol and creatinine) and in urine (albumin and creatinine) were determined by means of conventional commercial kits.

diabetic mice (db/db) [5] = test: Electroretinogram (ERG) recordings, topical eye drops; assay type: in vivo; settings: eye drops 15 days
Experimental: 8-week old diabetic mice (db/db) received the miS1 peptide in the form of eye drops (5 μL drops in each eye; 10 mg/mL; twice a day for 15 days; n=7 mice). Diabetic mice treated with the non-functional peptide Mut (n=7), treated with vehicle and non-diabetic mice (db/+) were used as controls. The eye drops were directly administered on the upper surface of the cornea of each eye using a micropipette. The weight and glycemia (colorimetric assay) were controlled throughout the study period. On day 15, the drop with the miS1 peptide or vehicle was administered about two hours before autopsy. […]
Electroretinogram (ERG) recordings were performed in darkness-adapted anesthetized mice (12 hours overnight). Focal electroretinogram (Ferg) recordings were measured using a Micron III Focal ERG system (Phoenix Research Labs, Pleasanton, Calif.). […] The ERG responses of both eyes were recorded in response to 20 ms white light stimuli. […] The ERG signals were amplified, the filtered band was between 0.5 and 1000 Hz, and was analyzed with LabScribe-2 software (BioSeb, Vitrolles, France) in order to calculate the a-wave and b-wave amplitude and implicit time, as recommended by the International Society of Clinical Electrophysiology of Vision (ISCEV) (Marmor et al Doc Ophtalmol 108: 107 a 144). […]

diabetic mice (db/db) [6] = test: Disruption of the blood-retinal barrier, albumin extravasation; assay type: in vivo; settings: eye drops 50 μg in 5 μL/eye twice a day, 15 days
Experimental: 8-week old diabetic mice (db/db) received the miS1 peptide in the form of eye drops (5 μL drops in each eye; 10 mg/mL; twice a day for 15 days; n=7 mice). Diabetic mice treated with vehicle (n=7) and non-diabetic mice (db/+) (n=7) were used as controls. The weight and glycemia (colorimetric assay) were controlled throughout the study period. The animals were euthanized on day 15 by cervical dislocation. The disruption of the BRB was evaluated by means of determining albumin permeability.
The paraffin sections were deparaffinized in xylene and rehydrated in a gradual series of ethanol. The sections were fixed in acidic methanol (−20° C.) for 1 minute and washed with 0.01 M PBS solution at pH 7.4. The sections were incubated in a blocking solution (2.5% dry, non-fat milk) for 30 minutes at room temperature. The sections were incubated with a goat anti-human serum albumin primary antibody (1:500, Abcam) overnight at 4° C. After one washing in PBS, the sections were incubated with an Alexa 594 donkey anti-goat secondary antibody (1:200, Molecular Probes) for 1 hour at room temperature. […] The immunofluorescence of albumin was analyzed by means of laser confocal microscopy (Olympus FluoView™ FV1000 confocal microscope, Hamburg, Germany).

STAT1 [7] = test: Renal phosphorylated STAT1 immunodetection in diabetic mice; assay type: in vivo; settings: STZ apoE mice, i.p. 8 weeks; kidney sections, vs vehicle
Experimental: as §1

miS1: SEQ ID NO 1 DTHFRTFRSHSDYRRI, kinase inhibitory region of murine SOCS1, bound to lysine-palmitate at the N-terminal end, tyrosine phosphorylated ({lysine‑palmitate}-DTHFRTFRSHSD[pY]RRI)
STAT1 activation (STAT1 [1]): prevented
STAT3 activation (phosphorylation) (STAT3 [2]): reduced STAT1 and STAT3 activation in a dose-dependent manner
renal STAT3 activation (STAT3 [3]): reduction
inflammatory lymphocyte and macrophage infiltrate in kidney [4]: significantly reduced
tubulointerstitial fibrosis [4]: significantly reduced
glomerular lesions (hypercellularity, mesangial expansion and glomerular hypertrophy) ([4]; vs vehicle): improvement
tubulointerstitial lesions (atrophy, degeneration and infiltrate) ([4]; vs vehicle): improvement
ERG a-wave and b-wave implicit time (diabetic mice (db/db) [5]; diabetes-induced increase): declines
ERG a-wave and b-wave amplitude (diabetic mice (db/db) [5]; diabetes-induced reduction): declines the reduction
albumin extravasation (vascular permeability) (diabetic mice (db/db) [6]): prevented
renal STAT1 activation (STAT1 [7]): reduction
